Experiment [1] deals with T1, PDK1 kinase (Homo sapiens, UniProt O15530).
T1 sequence (O15530 1-556): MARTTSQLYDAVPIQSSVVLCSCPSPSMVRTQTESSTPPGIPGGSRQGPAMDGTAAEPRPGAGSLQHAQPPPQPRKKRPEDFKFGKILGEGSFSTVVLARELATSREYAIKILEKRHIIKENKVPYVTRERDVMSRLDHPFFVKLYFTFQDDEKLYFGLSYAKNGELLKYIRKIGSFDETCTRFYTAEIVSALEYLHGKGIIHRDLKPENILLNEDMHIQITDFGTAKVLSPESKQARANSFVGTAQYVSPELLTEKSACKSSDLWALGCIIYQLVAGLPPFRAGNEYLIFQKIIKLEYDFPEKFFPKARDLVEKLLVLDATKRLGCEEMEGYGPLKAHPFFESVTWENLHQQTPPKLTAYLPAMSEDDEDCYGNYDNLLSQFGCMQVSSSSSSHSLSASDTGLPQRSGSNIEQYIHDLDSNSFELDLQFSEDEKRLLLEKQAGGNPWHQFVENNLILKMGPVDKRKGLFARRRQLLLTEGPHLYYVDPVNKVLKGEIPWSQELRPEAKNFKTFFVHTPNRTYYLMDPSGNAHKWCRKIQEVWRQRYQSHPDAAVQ
Kind of experiment: PDK1 Kinase Alpha Screen Assay. Conditions: PDK1 Kinase Alpha Screen Assay; read-out: PDK1 IC50. The format is biochemical. Summed up:
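PDK1, 10 uM ATP, 50 nM biotin-PDK1-4 peptide; 50 mM Tris pH 7.5, 10 mM MgCl2, 0.1% BSA, 0.01% Tween-20, 2 mM DTT, 2.5% DMSO; 3-18 h. EDTA stop; AlphaScreen, phospho-Ser/Thr antibody, overnight RT.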

Experiment [2] concerns A2780 cells. The experiment in a line: Cell Proliferation Assay (Cell Titer Glo), A2780. The conditions noted are these: Homo sapiens, read-out: CPEC50 A2780. Type of experiment: cell-based. In short, it runs like this: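 Following a 3-day compound exposure (37° C., 5% CO2) of A2780 or PC3MM cells plated at 1000 per well, viability was measured by Cell Titer Glo luminescence in fresh medium, read 10 min after reagent addition.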
For orientation: ATP-based viability assays read luminescence as a measure of living cells.

Where [3] appears, read: Cell Proliferation Assay, A2780.
[4] abbreviates: cell proliferation, A2780 cells.

Like-named read-outs stand apart in the source and are kept apart here.

For `NC(=O)c1cccc(COc2cccc3cnc(Nc4ccc(S(N)(=O)=O)cc4)nc23)c1` [Compound 513, 3-((2-(4-sulfamoylphenylamino)quinazolin-8-yloxy)methyl)benzamide], the IC50 (usually the concentration that inhibits the measured activity by half) in experiment [1] is less than 5 µM. Moreover, the EC50 in experiment [2] (setting [3]) was less than 5 µM.

As to `CC(=O)Nc1ccc(COc2cccc3cnc(Nc4ccc(S(N)(=O)=O)cc4)nc23)cc1` [Compound 514, N-(4-((2-(4-sulfamoylphenylamino)quinazolin-8-yloxy)methyl)phenyl)acetamide], the concentration for half-maximal inhibition (IC50) in experiment [1] was less than 5 µM. Moreover, in experiment [2] (setting [3]), the EC50 is less than 5 µM.

Consider `CNC(=O)c1ccc(Nc2ncc3cccc(OC(C)C)c3n2)cc1` [Compound 515, 4-(8-isopropoxyquinazolin-2-ylamino)-N-methylbenzamide], for which the IC50 in experiment [1] is less than 5 µM. Also, the EC50 in experiment [2] (setting [3]) is less than 5 µM.

Turning to `CC(C)NC(=O)c1ccc(Nc2ncc3cccc(OC(C)C)c3n2)cc1` [Compound 516, 4-(8-isopropoxyquinazolin-2-ylamino)-N-isopropylbenzamide], the IC50 in experiment [1] was less than 5 µM. In experiment [2] (setting [3]), the EC50 was less than 5 µM.

With `CNS(=O)(=O)c1ccc(Nc2ncc3cccc(OC(C)C)c3n2)cc1` [Compound 517, 4-(8-isopropoxyquinazolin-2-ylamino)-N-methylbenzenesulfonamide], in experiment [1], the IC50 was less than 5 µM. Further, the EC50 in experiment [2] (setting [3]) is less than 5 µM.

With `NS(=O)(=O)c1ccc(Nc2ncc3cccc(OCC(=O)N4CCOCC4)c3n2)cc1` [Compound 518, 4-(8-(2-morpholino-2-oxoethoxy)quinazolin-2-ylamino)benzenesulfonamide], the IC50 in experiment [1] fell in the range of 5 to 10 µM. Further, the EC50 in experiment [2] (setting [3]) fell in the range of 5 to 10 µM.

On to `CC(C)Oc1cccc2cnc(Nc3ccc(S(C)(=O)=O)cc3)nc12` [Compound 554, 8-isopropoxy-N-(4-(methylsulfonyl)phenyl)quinazolin-2-amine], for which the IC50 in experiment [1] was less than 5 µM. Moreover, the EC50 in experiment [2] (setting [3]) is less than 5 µM.

Regarding `CC(C)Oc1cccc2cnc(Nc3cccc(S(C)(=O)=O)c3)nc12` [Compound 555, 8-isopropoxy-N-(3-(methylsulfonyl)phenyl)quinazolin-2-amine], in experiment [1], the 50% inhibitory concentration (IC50) was less than 5 µM. Moreover, in experiment [2] (setting [3]), the EC50 was less than 5 µM.

For `CC(C)Oc1cccc2cnc(Nc3cccc(S(N)(=O)=O)c3)nc12` [Compound 556, 3-(8-isopropoxyquinazolin-2-ylamino)benzenesulfonamide], the IC50 in experiment [1] is less than 5 µM. Further, in experiment [2] (setting [3]), the EC50 was less than 5 µM.

For the compound `NS(=O)(=O)c1ccc(Nc2ncc3ccc(C(=O)O)cc3n2)cc1` [Compound 559, 2-(4-sulfamoylphenylamino)quinazoline-7-carboxylic acid], the half-maximal inhibitory concentration (IC50) in experiment [1] is less than 5 µM. Moreover, the EC50 in experiment [2] (setting [3]) was 5 to 10 µM.

On to `CNC(=O)c1ccc2cnc(Nc3ccc(S(N)(=O)=O)cc3)nc2c1` [Compound 561, N-methyl-2-(4-sulfamoylphenylamino)quinazoline-7-carboxamide], for which the half-maximal inhibitory concentration (IC50) in experiment [1] was less than 5 µM. Moreover, the EC50 in experiment [2] (setting [3]) is less than 5 µM.

With `Cc1cc(S(N)(=O)=O)ccc1Nc1ncc2cccc(OC(C)C)c2n1` [Compound 562, 4-(8-isopropoxyquinazolin-2-ylamino)-3-methylbenzenesulfonamide], in experiment [1], the concentration for half-maximal inhibition (IC50) was 10 to 25 µM. Besides, the EC50 in experiment [2] (setting [3]) is less than 5 µM.

With `NC(=O)c1ccc2cnc(Nc3ccc(S(N)(=O)=O)cc3)nc2c1` [Compound 564, 2-(4-sulfamoylphenylamino)quinazoline-7-carboxamide], the 50% inhibitory concentration (IC50) in experiment [1] is less than 5 µM. For the same compound, the EC50 in experiment [2] (setting [3]) was less than 5 µM.

As to `NS(=O)(=O)c1ccc(Nc2ncc3cccc(C(=O)O)c3n2)cc1` [Compound 622, 2-(4-sulfamoylphenylamino)quinazoline-8-carboxylic acid], the IC50 in experiment [1] was 5 to 10 µM. In addition, in experiment [2] (setting [3]), the EC50 was in the range of 5 to 10 µM.

With `CC(C)NC(=O)c1cccc2cnc(Nc3ccc(S(N)(=O)=O)cc3)nc12` [Compound 624, N-isopropyl-2-(4-sulfamoylphenylamino)quinazoline-8-carboxamide], the IC50 in experiment [1] was less than 5 µM. In addition, the EC50 in experiment [2] (setting [3]) was less than 5 µM.

With `NC(=O)c1ccc(COc2cccc3cnc(Nc4ccc(S(N)(=O)=O)cc4)nc23)cc1` [Compound 628, 4-((2-(4-sulfamoylphenylamino)quinazolin-8-yloxy)methyl)benzamide], the half-maximal inhibitory concentration (IC50) in experiment [1] was less than 5 µM. Besides, in experiment [2] (setting [3]), the EC50 was in the range of 5 to 10 µM.

On to `COc1ccc2cnc(Nc3ccc(S(N)(=O)=O)cc3)nc2c1` [Compound 629, 4-(7-methoxyquinazolin-2-ylamino)benzenesulfonamide], for which, in experiment [1], the IC50 was less than 5 µM. Moreover, in experiment [2] (setting [3]), the EC50 was less than 5 µM.

On to `CN(C)CCOc1ccc2cnc(Nc3ccc(S(N)(=O)=O)cc3)nc2c1` [Compound 630, 4-(7-(2-(dimethylamino)ethoxy)quinazolin-2-ylamino)benzenesulfonamide], for which, in experiment [1], the IC50 is less than 5 µM. Further, in experiment [2] (setting [3]), the EC50 lay in the range of 5 to 10 µM.

Consider `NS(=O)(=O)c1ccc(Nc2ncc3ccc(OCC4CCNCC4)cc3n2)cc1` [Compound 631, 4-(7-(piperidin-4-ylmethoxy)quinazolin-2-ylamino)benzenesulfonamide], for which the half-inhibitory concentration (IC50) in experiment [1] was less than 5 µM. The EC50 in experiment [2] (setting [3]) was less than 5 µM.

Turning to `NS(=O)(=O)c1ccc(Nc2ncc3ccc(OCCC4CCNCC4)cc3n2)cc1` [Compound 632, 4-(7-(2-(piperidin-4-yl)ethoxy)quinazolin-2-ylamino)benzenesulfonamide], the half-inhibitory concentration (IC50) in experiment [1] is less than 5 µM. Also, in experiment [2] (setting [3]), the EC50 is less than 5 µM.

As to `CC(C)Cn1cc(-c2ccc3cnc(Nc4ccc(S(N)(=O)=O)cc4)nc3c2)cn1` [Compound 849, 4-(7-(1-isobutyl-1H-pyrazol-4-yl)quinazolin-2-ylamino)benzenesulfonamide], the half-maximal inhibitory concentration (IC50) in experiment [1] was less than 5 µM. Also, the EC50 in experiment [2] (setting [4]) was less than 5 µM.

For `NS(=O)(=O)c1ccc(Nc2ncc3ccc(-c4ccnc(NCCN5CCCC5)c4)cc3n2)cc1` [Compound 850, 4-(7-(2-(2-(pyrrolidin-1-yl)ethylamino)pyridin-4-yl)quinazolin-2-ylamino)benzenesulfonamide], the IC50 in experiment [1] is less than 5 µM. For the same compound, in experiment [2] (setting [4]), the EC50 lay within 5 to 10 µM.

`NS(=O)(=O)c1ccc(Nc2ncc3ccc(-c4ccnc(N5CCCC5)c4)cc3n2)cc1` [Compound 851, 4-(7-(2-(pyrrolidin-1-yl)pyridin-4-yl)quinazolin-2-ylamino)benzenesulfonamide]: the 50% inhibitory concentration (IC50) in experiment [1] fell in the range of 5 to 10 µM. The EC50 in experiment [2] (setting [4]) is less than 5 µM.

As to `NS(=O)(=O)c1ccc(Nc2ncc3ccc(-c4ccnc(N5CCOCC5)c4)cc3n2)cc1` [Compound 852, 4-(7-(2-morpholinopyridin-4-yl)quinazolin-2-ylamino)benzenesulfonamide], the concentration for half-maximal inhibition (IC50) in experiment [1] is less than 5 µM. The EC50 in experiment [2] (setting [4]) was less than 5 µM.

As to `NS(=O)(=O)c1ccc(Nc2ncc3ccc(-c4cccnc4)c(OC4CCNCC4)c3n2)cc1` [Compound 853, 4-(8-(piperidin-4-yloxy)-7-(pyridin-3-yl)quinazolin-2-ylamino)benzenesulfonamide], in experiment [1], the IC50 was less than 5 µM. Moreover, the EC50 in experiment [2] (setting [4]) is less than 5 µM.

Take `NC(=O)c1ccc(-c2ccc3cnc(Nc4ccc(S(N)(=O)=O)cc4)nc3c2OC2CCNCC2)cc1` [Compound 854, 4-(8-(piperidin-4-yloxy)-2-(4-sulfamoylphenylamino)quinazolin-7-yl)benzamide]: the IC50 in experiment [1] is less than 5 µM. Besides, the EC50 in experiment [2] (setting [4]) lay in the range of 5 to 10 µM.

As for `NS(=O)(=O)c1ccc(Nc2ncc3ccc(-c4ccncc4)c(OC4CCNCC4)c3n2)cc1` [Compound 855, 4-(8-(piperidin-4-yloxy)-7-(pyridin-4-yl)quinazolin-2-ylamino)benzenesulfonamide], the IC50 in experiment [1] is less than 5 µM. In addition, in experiment [2] (setting [4]), the EC50 was 5 to 10 µM.

Turning to `Nc1ccc(-c2ccc3cnc(Nc4ccc(S(N)(=O)=O)cc4)nc3c2OC2CCNCC2)cn1` [Compound 856, 4-(7-(6-aminopyridin-3-yl)-8-(piperidin-4-yloxy)quinazolin-2-ylamino)benzenesulfonamide], the IC50 in experiment [1] was less than 5 µM. Further, the EC50 in experiment [2] (setting [4]) was less than 5 µM.

With `Nc1ncc(-c2ccc3cnc(Nc4ccc(S(N)(=O)=O)cc4)nc3c2OC2CCNCC2)cn1` [Compound 857, 4-(7-(2-aminopyrimidin-5-yl)-8-(piperidin-4-yloxy)quinazolin-2-ylamino)benzenesulfonamide], the IC50 in experiment [1] is less than 5 µM. The EC50 in experiment [2] (setting [4]) is 5 to 10 µM.

Consider `COc1cncc(-c2ccc3cnc(Nc4ccc(S(N)(=O)=O)cc4)nc3c2OC2CCNCC2)c1` [Compound 858, 4-(7-(5-methoxypyridin-3-yl)-8-(piperidin-4-yloxy)quinazolin-2-ylamino)benzenesulfonamide], for which the IC50 in experiment [1] is less than 5 µM. The EC50 in experiment [2] (setting [4]) was less than 5 µM.

For `NS(=O)(=O)c1ccc(Nc2ncc3ccc(-c4cn[nH]c4)c(OC4CCNCC4)c3n2)cc1` [Compound 859, 4-(8-(piperidin-4-yloxy)-7-(1H-pyrazol-4-yl)quinazolin-2-ylamino)benzenesulfonamide], the IC50 in experiment [1] is less than 5 µM. In addition, the EC50 in experiment [2] (setting [4]) was less than 5 µM.
